According to article PMC9822074, “Triterpenic Acid Amides as Potential Inhibitors of the SARS-CoV-2 Main Protease” (Molecules, 2022):

Molecular target: T1, SARS-CoV-2 main protease (Mpro, 3CLpro) (Severe acute respiratory syndrome coronavirus 2, UniProt P0DTD1)
T1 construct: gene rep
Test: FRET peptide cleavage assay
Assay type: biochemical
From the text: FRET peptide cleavage assay on SARS-CoV-2 main protease (Mpro, 3CLpro)

SMILES | IC50
C=C(C)[C@@H]1CC[C@]2(C(=O)NCCOc3ccc(CCOc4ccc(C[C@H](OCC)C(=O)O)cc4)cc3)CC[C@]3(C)[C@H](CC[C@@H]4[C@@]5(C)CCC(=O)C(C)(C)[C@@H]5CC[C@]43C)[C@@H]12 [1a] | 100 ± 5 µM
CCO[C@@H](Cc1ccc(OCCc2ccc(OCCNC(=O)[C@]34CC[C@@H](C(C)C)[C@@H]3[C@H]3CC[C@@H]5[C@@]6(C)CCC(=O)C(C)(C)[C@@H]6CC[C@@]5(C)[C@]3(C)CC4)cc2)cc1)C(=O)O [1b] | 100 ± 5 µM
CCO[C@@H](Cc1ccc(OCCc2ccc(OCCNC(=O)[C@]34CC[C@@H](C)[C@H](C)[C@H]3C3=CC[C@@H]5[C@@]6(C)CC[C@H](O)C(C)(C)[C@@H]6CC[C@@]5(C)[C@]3(C)CC4)cc2)cc1)C(=O)O [1d] | 100 ± 5 µM
CCO[C@@H](Cc1ccc(OCCc2ccc(OCCNC(=O)[C@]34CC[C@@H](C)[C@H](C)[C@H]3C3=CC[C@@H]5[C@@]6(C)C[C@@H](O)[C@H](O)C(C)(C)[C@@H]6CC[C@@]5(C)[C@]3(C)CC4)cc2)cc1)C(=O)O [1e] | 25 ± 3 µM
